Reference: publication PMC6429214, “Design, Synthesis and Biological Evaluation of Isoxazole-Based CK1 Inhibitors Modified with Chiral Pyrrolidine Scaffolds” (Molecules, 2019)

How the values were obtained:
Test in all cases: 33PanQinase panel
Type in all cases: biochemical
BMPR1A = target: T1, BMPR1A (Homo sapiens, UniProt P36894); settings: read-out: Residual Activity (%)
T1 construct: purchased ProQinase
Method in brief: (§1)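 Residual activity (%) relative to DMSO control was measured by radiometric 33P-based kinase activity assay with inhibitor at 1 µM and 1% final DMSO, across 320 wild-type kinases.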

BRSK1 = target: T2, BRSK1 (Homo sapiens, UniProt Q8TDC3); settings: BRSK1, 1 µM; read-out: Residual Activity (%)
T2 construct: purchased ProQinase
Method in brief: as §1

BRSK2 = target: T3, BRSK2 (Homo sapiens, UniProt Q8IWQ3); settings: BRSK2, 1 µM; read-out: Residual Activity (%)
T3 construct: purchased ProQinase
Method in brief: as §1

CAMKK2 = target: T4, CAMKK2 (Homo sapiens, UniProt Q96RR4); settings: CAMKK2, 1 µM; read-out: Residual Activity (%)
T4 construct: purchased ProQinase
T4 sequence (Q96RR4 whole entry): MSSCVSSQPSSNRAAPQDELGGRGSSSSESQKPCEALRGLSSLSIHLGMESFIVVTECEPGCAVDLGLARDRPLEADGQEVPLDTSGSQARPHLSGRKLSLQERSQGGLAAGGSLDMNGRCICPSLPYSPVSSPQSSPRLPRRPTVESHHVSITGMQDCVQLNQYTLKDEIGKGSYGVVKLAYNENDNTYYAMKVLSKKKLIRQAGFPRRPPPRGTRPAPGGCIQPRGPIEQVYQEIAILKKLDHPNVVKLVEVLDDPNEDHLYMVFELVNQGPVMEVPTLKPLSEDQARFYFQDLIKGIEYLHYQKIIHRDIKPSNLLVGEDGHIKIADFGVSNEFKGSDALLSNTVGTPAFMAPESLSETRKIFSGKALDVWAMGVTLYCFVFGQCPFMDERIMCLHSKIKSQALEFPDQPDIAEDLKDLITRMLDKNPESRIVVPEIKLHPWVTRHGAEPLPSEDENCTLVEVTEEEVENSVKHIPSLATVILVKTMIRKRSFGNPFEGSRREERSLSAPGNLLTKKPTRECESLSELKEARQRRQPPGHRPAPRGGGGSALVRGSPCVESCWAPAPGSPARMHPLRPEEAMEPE
Method in brief: as §1

CDC42BPA = target: T5, CDC42BPA (Homo sapiens, UniProt Q5VT25); settings: read-out: Residual Activity (%)
T5 construct: purchased ProQinase
Method in brief: as §1

CDK1/CycA2 = target: T6, CDK1/CycA2 (Homo sapiens, UniProt P06493); settings: CDK1/CycA2, 1 µM; read-out: Residual Activity (%)
T6 construct: purchased ProQinase
Method in brief: as §1

CDK2/CycE1 = target: T7, CDK2/CycE1 (Homo sapiens, UniProt P24941); settings: CDK2/CycE1, 1 µM; read-out: Residual Activity (%)
T7 construct: purchased ProQinase
Method in brief: as §1

DYRK1B = target: T8, DYRK1B (Homo sapiens, UniProt Q9Y463); settings: read-out: Residual Activity (%)
T8 construct: purchased ProQinase
T8 sequence (Q9Y463 whole entry): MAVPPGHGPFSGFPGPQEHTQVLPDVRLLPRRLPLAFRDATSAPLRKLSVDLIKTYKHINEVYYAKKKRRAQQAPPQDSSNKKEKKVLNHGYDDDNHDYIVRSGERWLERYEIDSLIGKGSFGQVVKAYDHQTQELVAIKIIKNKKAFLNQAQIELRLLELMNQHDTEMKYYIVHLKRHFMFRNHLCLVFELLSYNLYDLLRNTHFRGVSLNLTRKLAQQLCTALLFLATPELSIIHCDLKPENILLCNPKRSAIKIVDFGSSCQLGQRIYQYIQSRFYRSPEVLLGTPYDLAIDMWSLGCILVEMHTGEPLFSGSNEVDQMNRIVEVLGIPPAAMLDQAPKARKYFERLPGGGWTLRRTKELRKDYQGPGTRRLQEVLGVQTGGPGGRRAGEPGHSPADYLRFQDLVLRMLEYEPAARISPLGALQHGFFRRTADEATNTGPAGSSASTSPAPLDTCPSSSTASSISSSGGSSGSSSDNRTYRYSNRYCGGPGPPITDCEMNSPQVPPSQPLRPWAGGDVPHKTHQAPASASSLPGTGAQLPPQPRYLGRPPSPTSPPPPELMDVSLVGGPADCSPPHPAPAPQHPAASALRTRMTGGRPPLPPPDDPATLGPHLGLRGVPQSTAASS
Method in brief: as §1

ERK5 = target: T9, ERK5 (Homo sapiens, UniProt Q13164); settings: ERK5, 1 µM; read-out: Residual Activity (%)
T9 construct: purchased ProQinase
Method in brief: as §1

GSK3-beta = target: T10, GSK3-beta (Homo sapiens, UniProt P49841); settings: read-out: Residual Activity (%)
T10 construct: purchased ProQinase
T10 sequence (P49841 whole entry): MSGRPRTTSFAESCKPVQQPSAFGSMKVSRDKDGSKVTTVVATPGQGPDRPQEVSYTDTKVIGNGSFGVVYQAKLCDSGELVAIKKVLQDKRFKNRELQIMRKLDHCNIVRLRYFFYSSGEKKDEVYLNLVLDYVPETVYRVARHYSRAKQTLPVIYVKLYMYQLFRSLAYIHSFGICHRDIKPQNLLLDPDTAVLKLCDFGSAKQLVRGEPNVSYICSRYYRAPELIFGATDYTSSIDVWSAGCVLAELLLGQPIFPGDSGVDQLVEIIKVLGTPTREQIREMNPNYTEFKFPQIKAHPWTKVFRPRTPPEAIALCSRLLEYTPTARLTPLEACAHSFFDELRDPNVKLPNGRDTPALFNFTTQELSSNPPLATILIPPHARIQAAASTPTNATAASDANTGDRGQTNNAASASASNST
Method in brief: as §1

IKK-beta = target: T11, IKK-beta (Homo sapiens, UniProt O14920); settings: read-out: Residual Activity (%)
T11 construct: purchased ProQinase
Method in brief: as §1

INS-R = target: T12, INS-R (Homo sapiens, UniProt P06213); settings: read-out: Residual Activity (%)
T12 construct: purchased ProQinase
Method in brief: as §1

ITK = target: T13, ITK (Homo sapiens, UniProt Q08881); settings: read-out: Residual Activity (%)
T13 construct: purchased ProQinase
Method in brief: as §1

JNK3 = target: T14, JNK3 (Homo sapiens, UniProt P53779); settings: JNK3, 1 µM; read-out: Residual Activity (%)
T14 construct: purchased ProQinase
Method in brief: as §1

LIMK2 = target: T15, LIMK2 (Homo sapiens, UniProt P53671); settings: LIMK2, 1 µM; read-out: Residual Activity (%)
T15 construct: purchased ProQinase
Method in brief: as §1

LTK = target: T16, LTK (Homo sapiens, UniProt P29376); settings: read-out: Residual Activity (%)
T16 construct: purchased ProQinase
Method in brief: as §1

MEK1 = target: T17, MEK1 (Homo sapiens, UniProt Q02750); settings: MEK1, 1 µM; read-out: Residual Activity (%)
T17 construct: purchased ProQinase
T17 sequence (Q02750 whole entry): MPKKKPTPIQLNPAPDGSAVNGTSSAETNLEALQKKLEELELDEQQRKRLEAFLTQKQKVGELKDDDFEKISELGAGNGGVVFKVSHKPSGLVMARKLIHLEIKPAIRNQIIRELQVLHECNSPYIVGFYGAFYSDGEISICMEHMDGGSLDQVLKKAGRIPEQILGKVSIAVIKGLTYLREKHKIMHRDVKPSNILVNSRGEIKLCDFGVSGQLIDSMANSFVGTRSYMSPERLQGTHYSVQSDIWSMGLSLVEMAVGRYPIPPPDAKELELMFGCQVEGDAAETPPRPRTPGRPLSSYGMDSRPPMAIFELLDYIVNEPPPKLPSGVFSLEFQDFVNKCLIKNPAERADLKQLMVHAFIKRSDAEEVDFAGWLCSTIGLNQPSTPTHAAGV
Method in brief: as §1

MUSK = target: T18, MUSK (Homo sapiens, UniProt O15146); settings: read-out: Residual Activity (%)
T18 construct: purchased ProQinase
Method in brief: as §1

PDK1 = target: T19, PDK1 (Homo sapiens, UniProt O15530); settings: PDK1, 1 µM; read-out: Residual Activity (%)
T19 construct: purchased ProQinase
Method in brief: as §1

PRK2 = target: T20, PRK2 (Homo sapiens, UniProt Q16513); settings: PRK2, 1 µM; read-out: Residual Activity (%)
T20 construct: purchased ProQinase
Method in brief: as §1

RIPK2 = target: T21, RIPK2 (Homo sapiens, UniProt O43353); settings: RIPK2, 1 µM; read-out: Residual Activity (%)
T21 construct: purchased ProQinase
Method in brief: as §1

RPS6KA1 = target: T22, RPS6KA1 (Homo sapiens, UniProt Q15418); settings: RPS6KA1, 1 µM; read-out: Residual Activity (%)
T22 construct: purchased ProQinase
Method in brief: as §1

RPS6KA2 = target: T23, RPS6KA2 (Homo sapiens, UniProt Q15349); settings: RPS6KA2, 1 µM; read-out: Residual Activity (%)
T23 construct: purchased ProQinase
T23 sequence (Q15349 whole entry): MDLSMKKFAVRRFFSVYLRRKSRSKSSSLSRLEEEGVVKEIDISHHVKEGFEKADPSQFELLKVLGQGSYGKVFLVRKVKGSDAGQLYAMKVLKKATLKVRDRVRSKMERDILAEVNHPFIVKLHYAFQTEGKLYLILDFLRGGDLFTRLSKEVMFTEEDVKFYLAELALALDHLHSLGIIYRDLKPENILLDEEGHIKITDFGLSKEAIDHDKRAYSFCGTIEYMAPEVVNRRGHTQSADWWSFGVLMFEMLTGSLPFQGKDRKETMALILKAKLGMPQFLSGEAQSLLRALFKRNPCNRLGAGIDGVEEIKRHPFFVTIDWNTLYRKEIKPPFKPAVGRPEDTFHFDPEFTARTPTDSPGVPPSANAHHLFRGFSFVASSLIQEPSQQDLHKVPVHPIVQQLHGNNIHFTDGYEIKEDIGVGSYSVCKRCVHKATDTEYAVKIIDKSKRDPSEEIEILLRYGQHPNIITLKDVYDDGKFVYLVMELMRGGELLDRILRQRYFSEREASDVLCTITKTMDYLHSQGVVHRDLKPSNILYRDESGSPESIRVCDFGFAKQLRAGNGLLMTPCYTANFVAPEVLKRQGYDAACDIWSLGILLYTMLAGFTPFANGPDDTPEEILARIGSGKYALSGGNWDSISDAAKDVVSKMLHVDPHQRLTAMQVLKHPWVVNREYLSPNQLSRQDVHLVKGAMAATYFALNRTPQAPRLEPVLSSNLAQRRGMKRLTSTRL
Method in brief: as §1

SGK1 = target: T24, SGK1 (Homo sapiens, UniProt O00141); settings: SGK1, 1 µM; read-out: Residual Activity (%)
T24 construct: purchased ProQinase
T24 sequence (O00141 whole entry): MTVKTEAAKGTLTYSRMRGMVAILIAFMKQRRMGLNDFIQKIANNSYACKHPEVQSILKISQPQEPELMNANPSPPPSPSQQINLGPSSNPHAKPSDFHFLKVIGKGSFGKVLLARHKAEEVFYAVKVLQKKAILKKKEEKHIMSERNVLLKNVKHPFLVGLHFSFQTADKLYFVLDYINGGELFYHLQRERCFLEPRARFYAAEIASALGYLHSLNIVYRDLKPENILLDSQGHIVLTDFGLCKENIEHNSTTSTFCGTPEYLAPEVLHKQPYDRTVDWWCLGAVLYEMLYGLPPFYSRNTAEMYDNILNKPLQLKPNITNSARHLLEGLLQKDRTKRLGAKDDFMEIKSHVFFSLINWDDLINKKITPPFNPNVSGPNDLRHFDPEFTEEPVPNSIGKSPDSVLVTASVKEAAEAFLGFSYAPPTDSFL
Method in brief: as §1

SIK1 = target: T25, SIK1 (Homo sapiens, UniProt P57059); settings: SIK1, 1 µM; read-out: Residual Activity (%)
T25 construct: purchased ProQinase
Method in brief: as §1

SIK3 = target: T26, SIK3 (Homo sapiens, UniProt Q9Y2K2); settings: SIK3, 1 µM; read-out: Residual Activity (%)
T26 construct: purchased ProQinase
Method in brief: as §1

TAOK3 = target: T27, TAOK3 (Homo sapiens, UniProt Q9H2K8); settings: TAOK3, 1 µM; read-out: Residual Activity (%)
T27 construct: purchased ProQinase
Method in brief: as §1

TRK-C = target: T28, TRK-C (Homo sapiens, UniProt Q16288); settings: read-out: Residual Activity (%)
T28 construct: purchased ProQinase
T28 sequence (Q16288 32-839): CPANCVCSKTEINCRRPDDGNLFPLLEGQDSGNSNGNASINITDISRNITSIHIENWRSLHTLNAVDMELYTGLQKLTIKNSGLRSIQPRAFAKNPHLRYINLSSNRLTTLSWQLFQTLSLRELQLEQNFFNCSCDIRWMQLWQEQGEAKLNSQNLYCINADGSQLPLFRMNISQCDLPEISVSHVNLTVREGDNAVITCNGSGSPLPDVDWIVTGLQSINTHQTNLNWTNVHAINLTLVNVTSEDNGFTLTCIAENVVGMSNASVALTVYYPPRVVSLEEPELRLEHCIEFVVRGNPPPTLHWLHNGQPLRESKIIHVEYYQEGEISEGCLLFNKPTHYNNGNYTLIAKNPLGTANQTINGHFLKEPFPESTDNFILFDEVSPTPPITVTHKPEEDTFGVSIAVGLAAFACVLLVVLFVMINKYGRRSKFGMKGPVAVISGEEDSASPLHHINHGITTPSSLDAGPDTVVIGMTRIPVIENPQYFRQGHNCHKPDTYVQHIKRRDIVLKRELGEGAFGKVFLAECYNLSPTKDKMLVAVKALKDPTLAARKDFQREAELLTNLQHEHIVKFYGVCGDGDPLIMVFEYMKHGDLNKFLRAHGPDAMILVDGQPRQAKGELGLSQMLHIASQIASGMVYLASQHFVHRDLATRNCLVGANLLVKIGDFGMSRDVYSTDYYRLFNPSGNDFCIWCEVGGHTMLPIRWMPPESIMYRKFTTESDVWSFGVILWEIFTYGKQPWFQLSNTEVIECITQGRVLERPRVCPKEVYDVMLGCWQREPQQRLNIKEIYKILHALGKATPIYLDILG
Method in brief: as §1

TSSK1 = target: T29, TSSK1 (Homo sapiens, UniProt Q9BXA7); settings: TSSK1, 1 µM; read-out: Residual Activity (%)
T29 construct: purchased ProQinase
T29 sequence (Q9BXA7 whole entry): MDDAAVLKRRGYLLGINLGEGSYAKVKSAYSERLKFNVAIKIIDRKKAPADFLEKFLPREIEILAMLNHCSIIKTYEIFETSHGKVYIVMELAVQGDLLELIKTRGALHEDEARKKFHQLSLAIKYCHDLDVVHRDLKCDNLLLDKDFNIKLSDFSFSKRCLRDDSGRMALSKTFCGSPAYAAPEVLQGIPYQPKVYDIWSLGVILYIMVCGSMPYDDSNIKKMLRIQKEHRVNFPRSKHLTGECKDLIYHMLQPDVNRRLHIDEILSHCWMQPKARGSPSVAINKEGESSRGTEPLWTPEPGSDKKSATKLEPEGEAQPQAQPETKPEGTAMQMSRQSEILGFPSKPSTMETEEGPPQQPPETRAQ
Method in brief: as §1

VRK2 = target: T30, VRK2 (Homo sapiens, UniProt Q86Y07); settings: VRK2, 1 µM; read-out: Residual Activity (%)
T30 construct: purchased ProQinase
Method in brief: as §1

T1 sequence (P36894 24-532): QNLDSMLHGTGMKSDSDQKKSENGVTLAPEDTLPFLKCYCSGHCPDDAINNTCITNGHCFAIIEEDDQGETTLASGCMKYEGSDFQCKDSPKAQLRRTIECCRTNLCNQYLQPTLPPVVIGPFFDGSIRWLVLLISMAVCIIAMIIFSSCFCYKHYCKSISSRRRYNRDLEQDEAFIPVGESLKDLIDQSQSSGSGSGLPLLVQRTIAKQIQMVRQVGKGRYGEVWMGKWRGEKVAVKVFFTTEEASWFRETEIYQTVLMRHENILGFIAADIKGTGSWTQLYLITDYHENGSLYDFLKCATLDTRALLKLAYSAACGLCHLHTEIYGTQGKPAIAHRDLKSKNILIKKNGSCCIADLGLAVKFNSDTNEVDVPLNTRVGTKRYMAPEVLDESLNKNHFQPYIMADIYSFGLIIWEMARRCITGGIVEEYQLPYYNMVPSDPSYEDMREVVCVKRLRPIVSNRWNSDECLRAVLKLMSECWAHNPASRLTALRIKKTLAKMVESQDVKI

COc1ccc(-c2cc(C(=O)Nc3cc(-c4c(-c5ccc(F)cc5)noc4C(C)C)ccn3)n(CC3NCC(O)C3O)c2)cc1 (stereo not drawn) [29d]
remaining activity at 1 µM (BMPR1A): 96% | remaining activity at 1 µM (BRSK1): 104% | remaining activity at 1 µM (BRSK2): 90% | remaining activity at 1 µM (CAMKK2): 97% | remaining activity at 1 µM (CDC42BPA): 100% | remaining activity at 1 µM (CDK1/CycA2): 102% | remaining activity at 1 µM (CDK2/CycE1): 93% | remaining activity at 1 µM (DYRK1B): 104% | remaining activity at 1 µM (ERK5): 93% | remaining activity at 1 µM (GSK3-beta): 100% | remaining activity at 1 µM (IKK-beta): 92% | remaining activity at 1 µM (INS-R): 101% | remaining activity at 1 µM (ITK): 114% | remaining activity at 1 µM (JNK3): 15% | remaining activity at 1 µM (LIMK2): 98% | remaining activity at 1 µM (LTK): 98% | remaining activity at 1 µM (MEK1): 90% | remaining activity at 1 µM (MUSK): 97% | remaining activity at 1 µM (PDK1): 93% | remaining activity at 1 µM (PRK2): 88% | remaining activity at 1 µM (RIPK2): 108% | remaining activity at 1 µM (RPS6KA1): 84% | remaining activity at 1 µM (RPS6KA2): 93% | remaining activity at 1 µM (SGK1): 102% | remaining activity at 1 µM (SIK1): 92% | remaining activity at 1 µM (SIK3): 104% | remaining activity at 1 µM (TAOK3): 96% | remaining activity at 1 µM (TRK-C): 105% | remaining activity at 1 µM (TSSK1): 109% | remaining activity at 1 µM (VRK2): 92%
